Test system: M17_3TAU(P301L) cells
Test: TAU-induced cytotoxicity (LDH) in the neuroblastoma tauopathy model
Format: cell-based
Conditions: Homo sapiens, 168 h, inhibition of TAU-induced toxicity, 7 days retinoic acid differentiation, LDH readout
Excerpt: A TAU expression plasmid was constructed by sub-cloning the cDNA encoding for human TAU-P301L protein, wherein proline at position 301 is substituted by a leucine residue, into mammalian expression vector pcDNA3.1 resulting in the plasmid pcDNA3.1-TAUP301L. Plasmids pcDNA3.1 and pcDNA3.1-TAU P301L were transfected into human neuroblastoma cells (BE-M17; ATCC No. CRL-2267™) using lipofectamine reagent and subsequently, independent clonal cell lines with the plasmids stably integrated into the genome were selected by antibiotic resistance selection (Geneticin (G418)), resulting in cell lines M17.pcDNA3 and M17_3TAUP301L. Expression of the TAUP301 L gene in the M17_3TAUP301 L cells was confirmed by Western blot analysis.
Differentiation of the cells with RA leads to phosphorylation and subsequent aggregation of TAU, inducing a tauopathy in these cells. Cytotoxicity of cells was measured by quantification of lactate dehydrogenase (LDH) levels. In dead cells LDH is leaked out of the cells into the medium due to a loss of plasma-membrane integrity.
Briefly, 3 days preceding the experiment pre-cultures of M17.pcDNA3 and M17_3TAU(P301L) cells were prepared, starting from a stock culture, at a density of 50.000-100.000 cells/cm2 in detection medium (Optimem Reduced Serum without phenol red (Gibco, Cat. 31985-047) supplemented with 1% fetal calf serum (FCS), 1 mM sodium pyruvate, 1×non-essential amino acids (NEAA), 500 μg/ml G418 and 0.5×antibiotic/antimycotic (ABAM)). At the day of the experiment these precultures were diluted to ˜[…] in detection medium without FCS and 60 μL of this suspension is dispensed per well into a 96-well microtiter plate. After 3 hours of incubation at 37° C./5% C02 an equal volume of detection medium containing 2.5 μM RA was added and subsequently incubated for 7 days at 37° C./5% CO2. After 7 days, LDH activity was determined using the Promega Cytotox 96 Non-Radioactive cytotoxicity assay (Cat. G1780), according the manufacturer's instructions. Cytotoxicity is measured as the ratio of LDH increase in the supernatant divided by the LDH increase in the total cell suspension (sum of the LDH measured in cells and supernatant). Toxicity was determined after 7 days of differentiation with retinoic acid in M17_3TAU(P301 L) cells compared to M17.pcDNA3 cells.
The M17_3TAU(P301L) cell line makes it possible to assess the ability of novel compounds to inhibit TAU-induced cytotoxicity. […] Compounds were tested for their ability to hamper TAU-induced toxicity at different concentrations, ranging from low non-effective concentrations to high potent concentrations. Afterwards, the dose-dependent inhibition curve was used to calculate their EC50 (Table 3B).

Row | Structure (SMILES) | EC50 [nM]
1 | Cc1cccnc1CN1CC2(C1)CN(C(=O)Cc1ccc(C(F)(F)F)cc1)C2 [Cpd B078] | 12.6
2 | Cc1csc(CN2CC3(C2)CN(C(=O)NC2CCC(F)(F)CC2)C3)c1 [Cpd B210] | 14.6
3 | Cn1cc(Cl)c(CN2CC3(C2)CN(C(=O)NC2CCC(F)(F)CC2)C3)n1 [Cpd B209] | 15.2
4 | O=C(Cc1ccc(F)cc1)N1CC2(CN(Cc3cccc(Cl)c3)C2)C1 [Cpd B011, 1-[6-(3-Chloro-benzyl)-2,6-diaza-spiro[3.3]hept-2-yl]-2-(4-fluoro-phenyl)-ethanone] | 2.07
5 | O=C(Cc1ccc(F)cc1)N1CC2(CN(CCc3cccc(F)c3)C2)C1 [Cpd B024, 2-(4-Fluoro-phenyl)-1-{6-[2-(3-fluoro-phenyl)-ethyl]-2,6-diaza-spiro[3.3]hept-2-yl}-ethanone] | 26.7
6 | CC(c1cccc(C(F)(F)F)c1)N1CC2(CN(C(=O)Cc3ccc(F)cc3)C2)C1 (stereo not shown) [Cpd B015, 2-(4-Fluoro-phenyl)-1-{6-[1-(3-trifluoromethyl-phenyl)-ethyl]-2,6-diaza-spiro[3.3]hept-2-yl}-ethanone] | 9.54
7 | COc1ccc(CNC2CC3(C2)CC(Nc2nc(Cc4ccc(Cl)cc4)ns2)C3)cc1F (stereo not shown) [Cpd B313, N-(3-(4-chlorobenzyl)-1,2,4-thiadiazol-5-yl)-N′-(3-fluoro-4-methoxybenzyl) spiro[3.3]heptane-2,6-diamine] | 2.9
8 | Cc1cccc(CCN2CC3(C2)CN(C(=O)Cc2ccc(Cl)cc2)C3)c1 [Cpd B049, 2-(4-chlorophenyl)-1-(6-(3-methylphenethyl)-2,6-diazaspiro[3.3]heptan-2-yl)ethanone] | 12.4
9 | O=C(OC1CCC(F)(F)CC1)N1CC2(CN(Cc3ccc(F)cc3)C2)C1 [Cpd B133] | 2.9
10 | O=C(CC1CCC(F)(F)CC1)N1CC2(CN(Cc3ccc(F)cc3C(F)(F)F)C2)C1 [Cpd B104, 2-(4,4-difluorocyclohexyl)-1-(6-(4-fluoro-2-(trifluoromethyl)benzyl)-2,6-diazaspiro[3.3]heptan-2-yl)ethan-1-one] | 1.63
11 | O=C(CC1CCC(F)(F)CC1)N1CC2(CN(Cc3ccccc3C(F)(F)F)C2)C1 [Cpd B108] | 2.58
12 | O=C(OC1CCC(F)(F)CC1)N1CC2(CN(Cc3ncccc3C(F)(F)F)C2)C1 [Cpd B155] | 4.67
13 | COc1cccc(CN2CC3(C2)CN(S(=O)(=O)c2ccc(OC(F)(F)F)cc2)C3)c1 [Cpd B219] | 8.34
14 | Clc1ccc(Cc2nsc(NC3CC4(CC(NCc5cccc6c5OCO6)C4)C3)n2)cc1 (stereo not shown) [Cpd B330, N-(benzo[d][1,3]dioxol-4-ylmethyl)-N′-(3-(4-chlorobenzyl)-1,2,4-thiadiazol-5-yl) spiro[3.3]heptane-2,6-diamine] | 8
15 | Cc1cccnc1CN1CC2(C1)CN(C(=O)Cc1ccc(F)c(C(F)(F)F)c1)C2 [Cpd B077] | 3.68
16 | O=C(NC1CCC(F)(F)CC1)N1CC2(CN(Cc3ncccc3F)C2)C1 [Cpd B441] | 253
17 | N#Cc1ccc(CC(=O)N2CC3(CN(Cc4ccc(F)cc4)C3)C2)cc1 [Cpd B092] | 13.9
18 | Cc1cccnc1CN1CC2(C1)CN(C(=O)NCC1CCC(F)(F)CC1)C2 [Cpd B198] | 16.5
19 | Cc1cc(CN2CC3(C2)CN(C(=O)CC2CCC(F)(F)CC2)C3)n[nH]1 [Cpd B449] | 119
20 | CS(=O)(=O)c1ccc(CNC2CC3(C2)CC(Nc2nc(Cc4ccc(Cl)cc4)ns2)C3)cc1 (stereo not shown) [Cpd B331, N-(3-(4-chlorobenzyl)-1,2,4-thiadiazol-5-yl)-N′-(4-(methylsulfonyl)benzyl) spiro[3.3]heptane-2,6-diamine] | 73.3
21 | Clc1ccc(Cc2nsc(NC3CC4(CC(NCc5cc(Cl)ccc5Cl)C4)C3)n2)cc1 (stereo not shown) [Cpd B308, N-(3-(4-chlorobenzyl)-1,2,4-thiadiazol-5-yl)-N′-(2,5-dichlorobenzyl) spiro[3.3]heptane-2,6-diamine] | 3.8
22 | O=C(OCC1CCOCC1)N1CC2(CN(Cc3ccc(F)cc3)C2)C1 [Cpd B128, (tetrahydro-2H-pyran-4-yl)methyl 6-(4-fluorobenzyl)-2,6-diazaspiro[3.3]heptane-2-carboxylate] | 126

Row | Structure (SMILES) | EC50 [nM]
23 | O=C(OCC1CCC(F)(F)CC1)N1CC2(CN(Cc3ccc(F)cn3)C2)C1 [Cpd B161] | 49.3
24 | O=C(Cc1ccc(Cl)cc1)N1CC2(CN(CCc3cccc(C(F)(F)F)c3)C2)C1 [Cpd B044, 2-(4-chlorophenyl)-1-(6-(3-(trifluoromethyl)phenethyl)-2,6-diazaspiro[3.3]heptan-2-yl)ethanone] | 16.1
25 | COc1cccc(CN2CC3(C2)CN(C(=O)NCc2cccc(C(F)(F)F)c2)C3)c1 [Cpd B173] | 30.3
26 | Cn1ccc(CN2CC3(C2)CN(C(=O)CC2CCC(F)(F)CC2)C3)n1 [Cpd B462] | 53.1
27 | Cc1cccc(CN2CC3(C2)CN(C(=O)Cc2ccc(F)cc2)C3)n1 [Cpd B017, 2-(4-Fluoro-phenyl)-1-[6-(6-methyl-pyridin-2-ylmethyl)-2,6-diaza-spiro[3.3]hept-2-yl]-ethanone] | 26.7
28 | Cc1nc(CN2CC3(C2)CN(C(=O)CC2CCC(F)(F)CC2)C3)co1 [Cpd B127] | 67.6
29 | COc1cccc(CN2CC3(C2)CN(C(=O)NC2CCCC2)C3)c1 [Cpd B183] | < 0.19
30 | Cn1ncc(Cl)c1CN1CC2(C1)CN(C(=O)CC1CCC(F)(F)CC1)C2 [Cpd B438] | 317
31 | Cc1cccc(CN2CC3(C2)CN(C(=O)Cc2ccc(Cl)cc2)C3)n1 [Cpd B038, 2-(4-chlorophenyl)-1-(6-((6-methylpyridin-2-yl)methyl)-2,6-diazaspiro[3.3]heptan-2-yl)ethanone] | 13.9
32 | CC(Cc1ccccc1)N1CC2(CN(C(=O)Cc3ccc(Cl)cc3)C2)C1 (stereo not shown) [Cpd B054, 2-(4-chlorophenyl)-1-(6-(1-phenylpropan-2-yl)-2,6-diazaspiro[3.3]heptan-2-yl)ethanone] | 19.2
33 | COc1cccc(CN2CC3(C2)CN(C(=O)Cc2ccccn2)C3)c1 [Cpd B419] | 1260
34 | Cc1ccccc1CC(=O)N1CC2(CN(Cc3ccc(F)cc3)C2)C1 [Cpd B439] | 295
35 | O=C(Cc1ccc(F)cc1)N1CC2(CN(CCc3ccc(F)cc3)C2)C1 [Cpd B027, 2-(4-Fluoro-phenyl)-1-{6-[2-(4-fluoro-phenyl)-ethyl]-2,6-diaza-spiro[3.3]hept-2-yl}-ethanone] | 21.7
36 | Cn1cc(CN2CC3(C2)CN(C(=O)OCC2CCC(F)(F)CC2)C3)c(Cl)n1 [Cpd B157] | 9.33
37 | O=C(NC1CCC(F)(F)CC1)N1CC2(CN(Cc3ccc(Cl)cn3)C2)C1 [Cpd B457] | 71.5
38 | O=C(Cc1ccnc(Cl)c1)N1CC2(CN(Cc3ccc(F)cc3)C2)C1 [Cpd B442] | 200
39 | O=C(NC1CCC(F)(F)CC1)N1CC2(CN(Cc3ccccc3C(F)(F)F)C2)C1 [Cpd B207] | 17.8
40 | Cc1cccnc1CN1CC2(C1)CN(C(=O)CCC1CCCCC1)C2 [Cpd B081] | 9.69
41 | COc1ccc(CNC2CC3(C2)CC(Nc2nc(Cc4ccc(Cl)cc4)ns2)C3)c(OC)c1 (stereo not shown) [Cpd B316, N-(3-(4-chlorobenzyl)-1,2,4-thiadiazol-5-yl)-N′-(2,4-dimethoxybenzyl) spiro[3.3]heptane-2,6-diamine] | 3.1
42 | Cc1cccnc1CN1CC2(C1)CN(S(=O)(=O)Cc1ccc(F)cc1)C2 [Cpd B213] | 14.6
43 | O=C(Cc1ccc(Cl)cc1)N1CC2(CN(CCc3ccccc3Cl)C2)C1 [Cpd B062, 1-(6-(2-chlorophenethyl)-2,6-diazaspiro[3.3]heptan-2-yl)-2-(4-chlorophenyl)ethanone] | 1.08

From patent US20250388592A1 (REMYND N.V., priority 2022, published 2025)
